From publication PMC9462760, “A potent and selective inhibitor for the modulation of MAGL activity in the neurovasculature” (PLoS ONE, 2022) come the findings set out here.

The target of experiment [1] is T1, Monoacylglycerol lipase (MAGL) (Homo sapiens, UniProt Q99685).
T1 construct: gene MGLL
T1 sequence (Q99685 1-303): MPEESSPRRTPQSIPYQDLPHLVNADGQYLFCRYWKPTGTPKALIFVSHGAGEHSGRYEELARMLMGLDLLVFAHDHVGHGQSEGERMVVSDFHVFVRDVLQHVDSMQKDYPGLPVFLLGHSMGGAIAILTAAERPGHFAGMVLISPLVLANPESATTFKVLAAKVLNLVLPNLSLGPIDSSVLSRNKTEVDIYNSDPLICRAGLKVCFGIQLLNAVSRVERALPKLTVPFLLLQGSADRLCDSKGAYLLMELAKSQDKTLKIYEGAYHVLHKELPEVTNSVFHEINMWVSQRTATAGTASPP
Briefly: competitive ABPP in human brain lysate at […] ([…] decrease of MAGL signal). It is filed as cell-based.

Experiment [2] has as its target T2, Monoacylglycerol lipase (MAGL) (Mus musculus, UniProt O35678).
T2 construct: gene Mgll
T2 sequence (O35678 1-303): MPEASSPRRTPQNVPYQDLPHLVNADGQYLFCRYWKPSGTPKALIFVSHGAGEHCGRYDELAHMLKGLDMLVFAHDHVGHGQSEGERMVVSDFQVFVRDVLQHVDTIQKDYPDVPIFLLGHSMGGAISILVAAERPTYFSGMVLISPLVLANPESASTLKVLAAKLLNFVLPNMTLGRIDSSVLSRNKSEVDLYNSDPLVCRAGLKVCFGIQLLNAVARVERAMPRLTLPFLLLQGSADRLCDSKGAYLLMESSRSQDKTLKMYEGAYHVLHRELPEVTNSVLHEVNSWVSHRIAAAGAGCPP
Briefly: competitive ABPP in mouse brain lysate at […] ([…] decrease of MAGL signal). In kind it is cell-based.

For orientation: inhibition means the drop in the measured response relative to a control, in per cent. Low values mean a weak effect, high ones a strong effect. Consider `O=C(Oc1ccc([N+](=O)[O-])cc1)N1CCC(C(O)(c2ccc3c(c2)OCO3)c2ccc3c(c2)OCO3)CC1` [JZL 184], for which the inhibition at 10 µM in experiment [1] came to 83%; in experiment [2] it was 78%.
